Experimental data from patent publication US20110045032A1 (priority 2001, published 2011).

Tests used:
Assay type in all cases: in vivo
[1] = tested on: dust mite-sensitized rabbits; test: BALF inflammation, DHEA-S vs Pulmicort vs saline (Example 27)
Description: (§1) This follow-up study compared the effects of DHEA-S and Puimicort® (budesonide inhalation suspension) on allergen-induced bronchial hyperresponsiveness (BHR) to histamine and pulmonary inflammation in dust mite-sensitized rabbits. The study included 18 animals divided into 3 treatment groups: saline, DHEA-S, and Puimicort. The animals were treated for once per day for 5 consecutive days via nebulization through a pediatric facemask covering the nose and mouth. Treatments were DHEA-S, 10 mg/day (5 mg/ml), Pulmicort Respules, 0.5 mg/day (0.5 mg/2 ml, note: this is the standard human dose) or saline (2 ml). A dust mite challenge was performed on day 4, and development of airway inflammation was assessed 6 hours and 30 hours after dust mite challenge. Histamine sensitivity was assessed 30 hours after challenge (day 5) and the lungs removed for histology.

[2] = tested on: dust mite-sensitized cynomolgus monkeys; test: Early phase pulmonary function response to allergen (Example 24)
Description: This study defines the effect of 5 days of treatment with DHEA-S on allergen-induced early phase response, and pulmonary inflammation in dust mite-sensitized cynomolgus monkeys. Baseline parameters were measured the week prior to treatment. DHEA-S (5 mg/ml, 2 ml nebulized) or an equivalent volume of saline was delivered once per day via nebulization (Pari LC+) through a canine facemask covering the nose and mouth on days 1 through 5. Allergen challenge and pulmonary function testing were performed on day 3 several hours after drug treatment, and broncho-alveolar lavage fluid BALF) was collected 48 hours post-challenge. The study includes 6 animals studied under a crossover design with a minimum of 4 weeks rest between study arms. The treatment with DHEA-S led to the following changes in the disease status of the animals:
Effects on airway obstruction were measured by changes in dynamic compliance in response to allergen challenge. Allergic Cynomolgus monkeys were monitored for 15 minutes following allergen challenge and the values plotted against time. Changes in dynamic compliance were determined by the % change in compliance as compared to the animal's initial saline value recorded prior to challenge. Changes in response to allergen and/or treatment were calculated using the area under the curve (AUC) where an AUC unit is defined as % change×minutes. Treatment with DHEA-S attenuated the drop in airway compliance following allergen challenge by 87% as compared to saline treatment. With saline treatment, the total AUC was −394±127 units compared to −49±116 units for animals treated with DHEA-S. See, FIGS. 4.3.1.1; 4.3.1.2. This difference in the total AUC for vehicle and DHEA-S treated animals was determined to be significant using Student's t-test for paired observations, p=0.035. Likewise, treatment with DHEA-S attenuated the increase in airway resistance following allergen challenge by 90% as compared to saline treatment.

[3] = tested on: dust mite-sensitized rabbits; test: Pulmonary function after allergen challenge, intratracheal powder (Example 25)
Description: (§2) This study defines the effect of 7 days of treatment with DHEA-S on allergen-induced bronchial hyperresponsiveness (BHR), early and late phase responses, and pulmonary inflammation in dust mite-sensitized rabbits. Baseline BHR and inflammation were first determined. The following week, allergen challenge, pulmonary function testing and BALF were performed on the untreated rabbits. Histamine sensitivity was determined 24 hours post allergen challenge. Rabbits were rested for 3 weeks then baseline values were re-established. The following week, DHEA-S (5 mg/day) was delivered once a day for 7 days via an intratracheal powder injector through the endrotracheal tube of the anesthetized rabbit. On day 8, 24 hrs after the last treatment, allergen challenge, pulmonary function testing and BALF were performed as previously. On day 9, 24 hrs after allergen challenge, a histamine challenge was performed. The drug was not micronized prior to use thus only a portion of the administered date was expected to reach the deep lung. The study includes 4 animals studied under a crossover design. The treatment with DHEA-S led to changes in the disease status of the animals that are described in the following paragraph.
Effects on airway obstruction were measured by changes in dynamic compliance and total lung resistance in response to allergen challenge. Rabbits were monitored for 6 hours following allergen challenge and the values plotted against time. Changes in dynamic compliance were determined by the % change in compliance as compared to the animal's initial saline value recorded prior to challenge. Changes in response to allergen and/or treatment were calculated using the area under the curve (AUC) where an AUC unit is defined as % change×hour. Treatment with DHEA-S attenuated the drop in airway compliance following allergen challenge by 86% as compared to allergen alone. Following allergen alone the total AUC was −146 units compared to −20 units for animals treated with DHEA-S. This difference in the total AUC for vehicle and DHEA-S treated animals was determined to be significant using Student's t-test for paired observations, p=0.036. Similarly, treatment with DHEA-S attenuated the increase in airway resistance following allergen challenge by 54% as compared to allergen alone. […] Variability during the late phase kept differences in AUC between the vehicle and drug treatment groups from being significant when analyzed using a paired t-test.

[4] = tested on: dust mite-sensitized rabbits; test: BALF cell counts, intratracheal powder (Example 25)
Description: as §2

[5] = Acute inhalation toxicity in rats; conditions: rat, in vivo, inhaled; preclinical toxicology studies; not achieved at this dose; read-out: maximum tolerated dose
Description: (§3) Other findings were minor in nature and detailed in the reports that follow. Therefore, nebulization of an aqueous solution was determined to be feasible but not practical due to the inability to achieve a sufficient safety factor to support clinical trials.

rats = test: Acute inhalation toxicity in rats; conditions: inhalation
Description: as §3

[6] = tested on: dust mite-sensitized rabbits; test: Lung histology (Example 27); conditions: compared to saline
Description: as §1
Analysis of lung sections indicated a moderate level of pulmonary inflammation in all groups. No differences in the level of monocyte phagocytic hyperplasia, airway and blood vessel cuffing by inflammatory cells, pneumonitis, pneumonia, bronchial associated lymphoidal tissue hyperplasia, septal edema, hemorrhage, alveolar edema, or bronchitis/bronchiolitis was observed, although monocyte phagocytic hyperplasia tended to be higher in the Pulmicort and DHEA-S groups, and bronchitis tended to be lower.

[7] = 6 hours after allergen challenge, compared to Pulmicort

SMILES: CC12CCC3C(CC=C4CC(OS(=O)(=O)[O-])CCC43C)C1CCC2=O.[Na+] (centres unmarked) [DHEA-S, Dehydroepiandrosterone sulfate]
- number of eosinophils in BALF ([1]; 6 hours after allergen challenge): tended to decrease
- decrease of epithelial shedding [1, 7]: 54%
- reduction of number of neutrophils in the BALF [1, 7]: 91%
- reduction of cellular influx of cells into the BALF ([1]; 6 hours after allergen challenge, compared to Pulmicort, DHEA-S 10 mg/day nebulized, 5 days): 62%
- allergen-induced increase in neutrophils in BALF ([1]; 6 hours or 24 hours after allergen challenge): no allergen-induced increase in neutrophils
- number of eosinophils in BALF ([1]; 24 hours after allergen challenge): significant elevation
- total number of cells in the BALF compared to pre-challenge value ([1]; six hours following allergen challenge): did not
- reduction of eosinophilic inflammation compared with budesonide ([1]; summary statement): at least equivalent to budesonide
- reduction of neutrophilic inflammation compared with budesonide ([1]; summary statement): far superior
- total area under the curve for the change in compliance following allergen challenge ([2]; AUC unit = % change×minutes, 15 minutes, saline −394±127): −49±116 units
- total area under the curve for the change in resistance following allergen challenge ([2]; AUC unit = % change×minutes, saline 564±266): 54±90 units
- attenuation of the increase in airway resistance following allergen challenge ([2]; compared to saline treatment): 90%
- attenuation of the drop in airway compliance following allergen challenge ([2]; nebulized 5 mg/ml, 2 ml once per day, 5 days, compared to saline treatment): 87%
- attenuation of the drop in airway compliance following allergen challenge ([3]; 5 mg/day intratracheal powder, 7 days, compared to allergen alone): 86%
- total area under the curve for the change in resistance following allergen challenge ([3]; 6 hours, control 1069±243, not significant): 495
- total area under the curve for the change in compliance following allergen challenge ([3]; AUC unit = % change×hour, 6 hours, control −146±29): −20 units
- attenuation of the increase in airway resistance following allergen challenge ([3]; compared to allergen alone): 54%
- reduction of airway resistance changes ([3]; in the 6 hours after aerosol dust mite challenge): over 200%
- total area under the curve for the change in compliance following allergen challenge ([3]; inhaled or nasal, 6 h): −20±23 units
- 24-hour histamine responsiveness following allergen challenge ([3]; rabbit, in vivo): downward shift
- neutrophils in BALF ([4]; 15 minutes after dust mite challenge, control 10.2): 1.3 ×10^4 cells/ml
- macrophages in BALF ([4]; 15 minutes after dust mite challenge, control 29.6): 19.4 ×10^4 cells/ml
- neutrophils in BALF ([4]; 6 hours after challenge, control 43.8): 32.2 ×10^4 cells/ml
- eosinophils in BALF ([4]; 24 hours after allergen challenge, control 3.2): 2.0 ×10^4 cells/ml
- macrophages in BALF ([4]; 24 hours after allergen challenge, control 24.1): 17.8 ×10^4 cells/ml
- inhibition of eosinophils ([4]; at 24 hours): slight mean inhibition
- MTD [5]: > 11 mg/kg/day
- maximum tolerated dose (rats): could not be achieved
- adverse effects to the respiratory tract (rats; up to the maximum feasible dose): did not produce any adverse affects
- monocyte phagocytic hyperplasia ([6]; not significant): tended to increase
- necrotizing bronchitis ([6]; not significant): tended to decrease
- pavementing ([6]; statistically significant): decreased pavementing
